Data taken from US11278550B2, “Compositions and methods for the treatment of Prader-Willi syndrome” (Duke University, priority 2016, dated 2022).
“Also recorded” adds a separate entry of the source. Like-named read-outs stand apart in the source and are kept apart here.

Experiments:
[1] = system: maternal Snrpn-EGFP MEFs; assay: High content screening / concentration response of Snrpn-EGFP unsilencing; assay type: cell-based, mouse; conditions: for activation of S-EGFP: mS-EGFP/p+ MEFs; for EC50: read-out: half-maximal effective concentration (EC50), Snrpn-EGFP unsilencing
Method: High content screenings of small molecules were performed as described in Huang, et al. Nature 481, 185-189 (2012). HCS comprises a 384-well high-content screen using primary mouse embryonic fibroblasts (MEFs) from m^S-EGFP/p^+, and searched for drug-like molecules that could unsilence the maternal S-EFGP allele. […] To perform the screen, primary MEFs were isolated from E12.5-14.5 embryos of m^S-EGFP/p^+ and cultured for 7 days in Dulbecco's modified Eagle's media supplemented with 10% fetal bovine serum, 100 Units/mL penicillin and 100 μg/mL streptomycin, at 37° C. and 5% CO2. One day before treatment with small molecules, 5,000 cells per well were plated onto 384-well plates. The cells were then treated with compounds (10 μM for 72 hours) from multiple small molecule libraries (FIG. 1f and FIG. 2). In total, 9,157 small molecules were screened in quadruplicate, normalizing values to vehicle-treatment (0.2% DMSO) (Table 1). The unsilencing of Snrpn-EGFP was determined three days after drug treatment. The immunofluorescence-processed fibroblasts were imaged for Hoechst and Alexa Fluor 488 fluorescence using a BD Pathway 855 high content imaging microscope. Antibody-enhanced Snrpn-EGPF fluorescence intensity was determined in drug-treated cells individually and normalized to cells treated with vehicle control. In order to identify potentially active compounds, an arbitrary cutoff of 125% was used where 100% indicates basal fluorescence in the vehicle-treated MEFs. Analysis was performed using Cell Profiler with custom macro and algorithms. Potential active drugs were defined as the increase in drug-mediated EGFP fluorescence consistently observed across quadruplicate wells and minimal or no cytotoxicity measured by Hoechst-stained nuclear structure (and the changes in total number of cells). After initial validation of all potential active drugs (e.g., to determine whether active compounds show inherent fluorescence, the wild-type fibroblasts were also treated), only effective hit compounds further validated in dose-response tests to determine relative efficacy (Emax) and potency (EC50). The dose-response results were analyzed by using Graphpad Prism (Graphpad Software). The calculated EC50 values (potencies) and estimated Emax (efficacy, Y-value top plateau) enabled comparative analyses of the relative potency and efficacy of the identified compounds.
Three days after drug treatment, the cells were fixed at 4% paraformaldehyde at room temperature for 10 min, followed by rinsing with 1× PBS. The cells were permeabilized with 0.5% Triton X-100 in 1× PBS at room temperature for 10 min, followed by blocking with 5% normal goat serum in 0.1% Triton X-100 in 1× PBS at room temperature for 30 minutes. Primary rabbit anti-GFP antibody (1:1000, Novus Biologicals cat. no. NB100-1770) was incubated at 4° C. overnight. The next day, the cells were rinsed with 1× PBS and incubated with goat anti-rabbit Alexa Fluor 488 (Invitrogen cat. no. A-11008) and Hoechst at room temperature. One hour after incubation, the cells were rinsed with 1× PBS and imaged for Hoechst and Alexa Fluor 488 fluorescence using a BD Pathway 855 high content imaging microscope.
It is not feasible to design a screen for noncoding RNA. Alternatively, SNRPN/Snprn is paternally expressed but maternally silenced in all human and mouse tissues. The allele-specific expression of human SNRPN is regulated by the PWS-IC, which also controls the expression of host transcripts for SnoRNAs, including the SNORD116 cluster between SNRPN and UBE3A. see Le Meur, E. et al., Dev. Biol. 286, 587-600 (2005). Thus, the Snrpn-EGFP fusion protein (hereafter S-EGFP) was used as a marker for high content screening (HCS). It was determined that small molecules that can unsilence S-EGFP would also be effective in reactivating the host transcript of SNORD116. […]

[2] = system: human PWS fibroblasts; assay: RT-PCR of 15q11-q13 genes in human PWS fibroblasts; assay type: cell-based; conditions: for SNORD116 and its putative host transcript (116HG): 4 μM, 72 hours
Method: For testing long lasting drug effects, the 6 week-old m^S-EGFP/p^+ mice were treated daily by i.p. injection for seven consecutive days.
For reverse-transcription PCR (RT-PCR) and quantitative real time RT-PCR (qRT-PCR), first total RNA was extracted from the fibroblasts and/or collected tissues (liver and brain) using Direct-zol RNA Miniprep kit (Zymo Research cat. no. R2070). 2 μg of total RNA was directly used for single strand cDNA synthesis with Superscript III reverse transcriptase (Invitrogen cat. no. 18080-093) according to the manufacturer's protocols. The conditions for RT-PCR were 95° C./5 min, 35-40 cycles of 95° C./30 sec, 56-60° C./60 sec, 72° C./60 sec. Quantification of target gene expression was performed in a LightCycler480 instrument (Roche) using SsoAdvanced Universal SYBR green Supermix (Biorad cat. no. 172-5271) according to the manufacturer's instructions. See Table 4 for primer sequences and conditions used for experiments for RT-PCR, qRT-PCR, bisulfite genomic sequencing, ChIP-qPCR, and chromatin accessibility assay.
FIG. 4a represents a schematic of genomic organization at the human chromosome 15q11-q13 region imprinting center. Because imprinting of SNPRN is known to be ubiquitous, the G9a-inhibitor effect on its activation is expected to be representative of all tissues and cell types.

[3] = system: H3K9me2; conditions: cited from earlier work
[4] = system: m+/pΔS-U and WT mice; assay: Toxicity evaluation in mice (body weight, neurological screening, blood, histopathology); assay type: in vivo, mouse
Method: Brain, liver, lung, kidney and heart tissues from 3-month-old mice were fixed in 10% neutral buffered formalin (NBF: 10 ml of Formalin (37% stock), 90 ml of deionized water, 4 g/liter of NaH2PO4, 6.5 g/liter Na2HPO4), embedded in paraffin, sectioned at 5 μm, stained with hematoxylin and eosin, and images examined by a board-certified toxicological pathologist.
Blood was collected from 3-month-old mice into microcontainers or hematology assay tubes using jugular vein bleeding puncture. A serum metabolic panel was obtained using the Heska Dry Chem analyzer (Cuattro Veterinary USA). The metabolic panel contained chem and electrolyte, liver and kidney functions. For hematology analysis, we tested whole blood using Procyte (IDEXX).
General health of mice was evaluated using a modified version of standard test battery for behavioral phenotyping (see 57). Observational assessment included the evaluation of body weight, body core temperature, overt behavioral signs (coat appearance, body posture and secretary signs) and sensory functions (visual ability, audition, tactile percep- tion and vestibular function). Table 6 indicates the mouse sex and age information.

Row | Structure (SMILES) | activation of S-EGFP [1] | EC50 ([1]; maternal Snrpn-EGFP MEFs, 72 hours) | SNORD116 and its putative host transcript (116HG) [2] | activation of SNRPN and SNORD116 transcripts ([2]; 1-4 μM) | reduction of the levels of H3K9me2 ([3]; 250 nM, variety of cell lines) | EC50 ([1]; Mus musculus, 72 h) | loss of body weight ([4]; WT mice) | general health and neurological screening ([4]; blinded) | histopathological analyses ([4]; brain, liver, kidney, lung and heart, P90 / 3 months) | hematological analysis (liver and kidney functions, lipid and protein metabolism) ([4]; treated m+/pΔS-U and WT mice) | potency for H3K9me2 mark ([3]; several cell lines)
1 | COc1cc2c(NC3CCN(C(C)C)CC3)nc(C3CCCCC3)nc2cc1OCCCN1CCCC1 [UNC0638] | active | 1600 nM | effective | effectively activated | 60-80% | – | – | – | – | – | –
2 | COc1cc2c(NC3CCN(C(C)C)CC3)nc(N3CCC(F)(F)CC3)nc2cc1OCCCN1CCCC1 [UNC0642] | active | – | effective | – | – | 2700 nM | not observed | did not reveal any substantial abnormalities | did not reveal any abnormalities; also recorded: no significant compound related lesions | within normal ranges | high potency
